Data from the supplement of paper PMC10307832.

Experiments:
Test in all cases: relative viability (nuclei count vs DMSO), 5 days (fraction); higher = more cells survive
[1] = compound: C1CNCCC1C2=CC(=NN2)C3=CC=NC=C3 + CC(=O)c1c(C)c2cnc(Nc3ccc(N4CCNCC4)cn3)nc2n(C2CCCC2)c1=O [Palbociclib] (partner 0.5 µM)
How it was run: (§1)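 Relative viability equals treated-well nuclei counts divided by vehicle-well nuclei counts. Counts came from 4× images of lung cancer cell lines grown in 1536-well plates for 5 days after pin-tool dosing on the day after seeding. Dosing used one drug alone or a fixed anchor-drug dose plus five library-drug doses (not always all listed) in √10 steps, and values are medians of duplicate plates.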

[2] = compound: C1CNCCC1C2=CC(=NN2)C3=CC=NC=C3 + N=C(N)NC(=N)NCCc1ccccc1 [Phenformin] (partner 250 µM)
How it was run: as §1

[3] = compound: C[C@@H](N)c1ccc(C(=O)Nc2ccnc3[nH]ccc23)cc1 + C[C@@H](Oc1cc(-c2cnn(C3CCNCC3)c2)cnc1N)c1c(Cl)ccc(F)c1Cl [Crizotinib] (partner 1 µM)
How it was run: as §1

Tanzisertib + Bortezomib = compound: O[C@H]1CC[C@H](Nc2ncc3nc(Nc4c(F)cc(F)cc4F)n([C@H]4CCOC4)c3n2)CC1 [Tanzisertib] + CC(C)C[C@H](NC(=O)[C@H](Cc1ccccc1)NC(=O)c1cnccn1)B(O)O [Bortezomib] (partner 0.002 µM)
How it was run: as §1

| Cell Line | relative viability ([1]; first compound 0.08 µM) | relative viability ([1]; first compound 2.53 µM) | relative viability ([1]; first compound 8 µM) | relative viability ([2]; first compound 0.08 µM) | relative viability ([2]; first compound 0.8 µM) | relative viability ([2]; first compound 2.53 µM) | relative viability ([2]; first compound 8 µM) | relative viability ([3]; first compound 0.04 µM) | relative viability ([3]; first compound 0.1265 µM) | relative viability ([3]; first compound 0.4 µM) | relative viability ([3]; first compound 4 µM) | relative viability ([1]; first compound 0.8 µM) | relative viability (Tanzisertib + Bortezomib; first compound 0.08 µM) | relative viability (Tanzisertib + Bortezomib; first compound 0.253 µM) | relative viability (Tanzisertib + Bortezomib; first compound 0.8 µM) | relative viability (Tanzisertib + Bortezomib; first compound 2.53 µM) | relative viability (Tanzisertib + Bortezomib; first compound 8 µM) | relative viability ([3]; first compound 1.265 µM) |
| --- | --- | --- | --- | --- | --- | --- | --- | --- | --- | --- | --- | --- | --- | --- | --- | --- | --- | --- |
| SW 900 | 0.551 | 0.584 | 0.561 | 0.64 | 0.548 | 0.738 | 0.628 | – | – | – | – | – | – | – | – | – | – | – |
| NCI-H1944 | 0.267 | 0.353 | 0.359 | 0.18 | 0.185 | 0.209 | 0.173 | 1.12 | 1.1 | 1.12 | 0.94 | 0.326 | – | – | – | – | – | – |
| NCI-H727 | 0.627 | 0.66 | 0.646 | 0.529 | 0.468 | 0.619 | 0.631 | 1.04 | 1 | 1.21 | 0.842 | 0.685 | 1 | 0.762 | 1.04 | 0.806 | 0.64 | 1.19 |
| NCI-H1650 | 0.365 | 0.379 | 0.343 | 0.287 | 0.442 | 0.428 | 0.356 | 1.04 | 1.12 | 1.04 | 0.763 | 0.315 | 0.192 | 0.217 | 0.201 | 0.195 | 0.182 | 0.911 |
| HCC-827 | 0.498 | 0.534 | 0.499 | 0.375 | 0.392 | 0.414 | 0.358 | 0.928 | 0.957 | 0.925 | 0.795 | 0.437 | 0.952 | 1.06 | 1.12 | 1.04 | 0.701 | 0.941 |
| HCC-366 | 0.336 | 0.398 | 0.385 | 0.653 | 0.656 | 0.618 | 0.659 | 0.71 | 0.536 | 0.683 | 0.483 | 0.409 | 1.08 | 1.03 | 1.1 | 0.995 | 1.01 | – |
| HARA | 0.284 | 0.281 | 0.28 | 0.516 | 0.403 | 0.43 | 0.491 | 1.18 | 1.13 | 1.21 | 0.735 | 0.282 | 1.22 | 1.16 | 1.18 | 1.17 | 1.18 | 0.835 |
| NCI-H322M | 0.489 | 0.468 | 0.508 | 0.796 | 0.77 | 0.856 | 0.864 | 0.881 | 0.944 | 1.09 | 1.08 | 0.425 | 1.25 | 1.21 | 1.32 | 1.14 | 1.18 | – |
| LXF-289 | 0.599 | 0.646 | 0.58 | 0.449 | 0.48 | 0.533 | 0.496 | 0.846 | 0.784 | 0.883 | 0.715 | 0.644 | 1.1 | 1.03 | 1.03 | 0.977 | 1.04 | 0.915 |
| PC-3 [JPC-3] | 0.547 | 0.558 | 0.541 | 0.499 | 0.447 | 0.494 | 0.463 | 0.969 | 0.931 | 1.01 | 0.917 | 0.495 | 0.875 | 0.931 | 0.847 | 0.739 | 0.716 | 1.1 |
| CAL-12T | 0.535 | 0.566 | 0.572 | 0.598 | 0.663 | 0.654 | 0.616 | 0.795 | 0.78 | 0.845 | 0.252 | 0.0415 | 1.04 | 1.2 | 1.18 | 1.01 | 0.825 | 0.529 |
| COR-L 105 | 0.394 | 0.421 | 0.472 | 0.541 | 0.419 | 0.508 | 0.528 | 0.721 | 0.747 | 0.652 | 0.408 | 0.405 | 0.818 | 0.708 | 0.99 | 0.877 | 0.482 | 0.537 |
| NCI-H2347 | 0.385 | 0.44 | 0.431 | 0.398 | 0.225 | 0.412 | 0.48 | 0.668 | 0.775 | 0.776 | 0.605 | 0.453 | 0.737 | 0.837 | 1.27 | 1.29 | 0.628 | 0.714 |
| NCI-H2126 | 0.364 | 0.322 | 0.354 | 0.483 | 0.51 | 0.556 | 0.577 | 1.03 | 1.02 | 1.03 | 1.04 | 0.368 | 1.11 | 1.18 | 1.09 | 1.11 | 1.2 | 1.02 |
| NCI-H838 | 0.225 | 0.249 | 0.247 | 0.605 | 0.546 | 0.577 | 0.563 | 0.835 | 0.778 | 0.638 | 0.316 | 0.194 | 1.24 | 0.971 | 0.807 | 0.778 | 0.643 | 0.431 |
| A549 | – | – | – | 0.107 | 0.153 | 0.199 | 0.156 | 0.833 | 0.793 | 0.734 | 0.268 | – | – | – | – | – | – | 0.504 |
| NCI-H2342 | 0.486 | 0.587 | 0.556 | 0.512 | 0.501 | 0.688 | 0.631 | – | – | – | – | 0.545 | – | – | – | – | – | – |
| NCI-H1623 | – | – | – | 0.6 | 0.502 | 0.642 | 0.637 | – | – | – | – | – | – | – | – | – | – | – |
| SK-LU-1 | 0.418 | 0.43 | 0.397 | 0.498 | 0.41 | 0.529 | 0.57 | 0.926 | 0.964 | 0.779 | 0.5 | 0.348 | 1.07 | 1.19 | 1.3 | 1.18 | 0.493 | 0.757 |
| NCI-H2085 | 0.519 | 0.481 | 0.485 | 0.744 | 0.418 | 0.801 | 0.817 | 0.914 | 0.917 | 0.786 | 0.718 | – | 1.11 | 1.08 | 0.992 | 1.07 | 1.09 | 0.749 |
| NCI-H460 | 0.105 | 0.315 | 0.303 | 0.335 | 0.72 | 0.564 | 0.51 | 1.1 | 0.943 | 0.966 | 0.603 | 0.179 | 1.21 | 1.2 | 1.12 | 1.07 | 0.965 | 0.516 |
